# Measured values taken from the supplement of paper PMC10307832.
# How the values were obtained:
# Assay in all cases: relative viability (nuclei count vs DMSO), 5 days (fraction); higher = more cells survive
# Sunitinib + Lapatinib = compound: CCN(CC)CCNC(=O)c1c(C)[nH]c(/C=C2\C(=O)Nc3ccc(F)cc32)c1C [Sunitinib] + CS(=O)(=O)CCNCc1ccc(-c2ccc3ncnc(Nc4ccc(OCc5cccc(F)c5)c(Cl)c4)c3c2)o1 [Lapatinib] (partner 2 µM)
# How it was run: (§1)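 Cells from lung cancer lines were seeded into 1536-well plates and, one day later, dosed by pin tool. Treatments were either a single drug or a fixed dose of an anchor drug with five library-drug doses (not always all listed) in √10 steps. After 5 days, nuclei were stained in a one-step fixation (final 0.05% Triton X-100, 1% formaldehyde, 1 ug/ml Hoechst) and counted on 4× images, and relative viability is the treated-to-vehicle nuclei ratio, as the median of duplicate plates.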
# Sunitinib + Linsitinib = compound: CCN(CC)CCNC(=O)c1c(C)[nH]c(/C=C2\C(=O)Nc3ccc(F)cc32)c1C [Sunitinib] + C[C@]1(O)C[C@@H](c2nc(-c3ccc4ccc(-c5ccccc5)nc4c3)c3c(N)nccn32)C1 [Linsitinib] (partner 1 µM)
# How it was run: as §1
# Sunitinib + Trametinib = compound: CCN(CC)CCNC(=O)c1c(C)[nH]c(/C=C2\C(=O)Nc3ccc(F)cc32)c1C [Sunitinib] + CC(=O)Nc1cccc(-n2c(=O)n(C3CC3)c(=O)c3c(Nc4ccc(I)cc4F)n(C)c(=O)c(C)c32)c1 [Trametinib] (partner 0.02 µM)
# How it was run: as §1
# Sunitinib + OSI-027 = compound: CCN(CC)CCNC(=O)c1c(C)[nH]c(/C=C2\C(=O)Nc3ccc(F)cc32)c1C [Sunitinib] + COc1cccc2cc(-c3nc([C@H]4CC[C@H](C(=O)O)CC4)n4ncnc(N)c34)[nH]c12 [OSI-027] (partner 0.5 µM)
# How it was run: as §1
Cell Line,relative viability (Sunitinib + Lapatinib; first compound 0.06325 µM),relative viability (Sunitinib + Lapatinib; first compound 0.2 µM),relative viability (Sunitinib + Lapatinib; first compound 0.6325 µM),relative viability (Sunitinib + Lapatinib; first compound 2 µM),relative viability (Sunitinib + Linsitinib; first compound 0.02 µM),relative viability (Sunitinib + Linsitinib; first compound 0.06325 µM),relative viability (Sunitinib + Linsitinib; first compound 0.2 µM),relative viability (Sunitinib + Linsitinib; first compound 0.6325 µM),relative viability (Sunitinib + Linsitinib; first compound 2 µM),relative viability (Sunitinib + Trametinib; first compound 0.02 µM),relative viability (Sunitinib + Trametinib; first compound 0.06325 µM),relative viability (Sunitinib + Trametinib; first compound 0.2 µM),relative viability (Sunitinib + Trametinib; first compound 0.6325 µM),relative viability (Sunitinib + Trametinib; first compound 2 µM),relative viability (Sunitinib + OSI-027; first compound 0.02 µM),relative viability (Sunitinib + OSI-027; first compound 0.06325 µM),relative viability (Sunitinib + OSI-027; first compound 0.2 µM),relative viability (Sunitinib + OSI-027; first compound 0.6325 µM),relative viability (Sunitinib + OSI-027; first compound 2 µM),relative viability (Sunitinib + Lapatinib; first compound 0.02 µM)
201T,1.08,1.02,1.05,1.04,1,0.941,1.06,1.09,1.04,0.704,0.75,0.739,0.717,0.697,0.663,0.778,0.904,0.733,0.654,–
A549,–,1.21,1.03,–,0.563,0.638,0.669,0.716,0.579,–,–,–,–,–,–,–,–,–,–,1.03
A-427,1.12,1.11,1.16,1.08,1.1,1.18,1.12,1.15,1.12,0.759,0.758,0.893,0.821,0.728,0.445,0.49,0.448,0.537,0.392,1
ABC-1,1.19,1.34,1,1.19,1.03,0.766,0.855,0.923,0.718,–,–,–,–,–,0.43,0.604,0.494,0.685,0.504,1.18
BEN,0.754,0.675,0.673,0.618,–,0.862,1.07,0.951,0.896,0.9,–,1.06,1.08,1.05,0.306,0.32,0.281,0.3,0.273,0.651
CAL-12T,0.77,0.67,0.807,0.665,0.807,0.82,1.2,1.06,1.01,0.322,0.356,0.4,0.407,0.268,0.665,0.695,0.748,–,0.397,0.687
COR-L23,1.18,0.983,1.14,0.951,0.902,1.1,1,1.02,0.999,0.466,0.57,0.548,0.656,0.547,0.73,0.829,0.889,0.878,0.779,0.71
COR-L 105,0.459,0.358,0.36,0.372,1.02,0.994,0.839,1.15,1.03,0.45,0.465,0.452,0.469,0.44,0.626,0.734,0.779,0.987,0.767,0.336
Calu-6,1.16,1.28,1.18,1.19,0.874,1.08,–,1.08,0.981,–,–,–,–,–,–,–,–,–,–,1.02
ChaGo-K-1,–,–,–,–,–,–,–,–,–,0.814,0.919,0.977,0.889,0.888,0.494,0.685,0.577,0.663,0.579,–
EBC-1,0.198,0.224,0.215,0.202,0.9,0.972,1.01,0.993,0.957,–,–,–,–,–,–,–,–,–,–,0.227
EKVX,0.227,0.193,0.233,0.241,1.07,1.04,1.18,1.12,1.06,0.314,0.357,0.412,0.345,0.298,0.671,0.728,0.771,0.741,0.666,0.213
EMC-BAC-2,0.959,1.01,–,0.891,0.769,0.817,0.896,0.865,0.778,0.868,0.932,0.966,0.99,1.12,0.372,0.41,0.423,0.4,0.502,0.839
EPLC-272H,1.02,1.14,0.937,0.915,1.27,1.1,1.15,1.09,0.93,0.253,0.271,0.287,0.283,0.288,0.336,0.318,0.302,0.29,0.291,0.837
H3255,0.313,0.227,0.259,0.236,0.884,1.02,–,1.01,1.03,0.611,0.658,0.652,0.614,0.597,0.66,0.583,0.645,0.621,0.666,0.231
HARA,0.813,0.881,0.729,0.801,0.948,0.978,1.14,0.956,0.858,0.599,0.976,0.841,0.943,0.707,0.447,0.566,0.655,0.489,0.399,0.767
